The values below come from patent EP0280873A1, “Piperidines, medicines containing them and process for their preparation” (Dr. Karl Thomae GmbH, priority 1987, dated 1988).

Counter-ions that a name gives are not always drawn. Like-named read-outs stand apart in the source and are kept apart here.

Data set [1] has as its system mit Reserpin behandelten Maus. The data set can be described thus: Anti-Parkinson effect: induction of motility in mice treated with reserpine 24 h earlier. Type of data set: in vivo. Particulars: 2 mg/kg s.c., measured 20 min later, group of 6 mice, x ± sx; saline controls ca. 5. On the procedure:
3. Bestimmung der Anti-Parkinson-Wirkung nach der Methode von Hinzen D. et al., European Journal of Pharmacology 131, 75-88 (1986):
a) Motilitätsauslösung an der 24 Stunden zuvor mit Reserpin behandelten Maus:
Mäuse werden 24 Stunden vor dem Experiment mit 5 mg/kg Reserpin i.p. behandelt; die Tiere werden bei 25-30°C gehalten und 3 × mit 2 ml einer 5%igen Glucose-lösung in Tyrode s.c. behandelt. Gruppen zu je 6 Tieren erhalten die Testsubstanz mit 2 mg/kg s.c. injiziert. 20 Minuten später werden die Tiere zur Aktivitätsmessung in Beobachtungskäfige gesetzt, die mit einer Infrarotlichtschranke ausgerüstet sind. Meß-wert ist die Häufigkeit des Passierens des Infrarotstrahles durch eine Gruppe von 6 Mäusen in 5 Minuten ("Laufimpulse/5 Minuten").
Pro Substanz werden 6 Gruppen geprüft. Kontrolltiere erhalten isotone Kochsalzlösung s.c..
Als Ergebnis werden die mit der Testsubstanz erzielten Laufimpulse/5 Minuten dargestellt (x ± sx) Kontrolltiere (Kochsalzlösung) zeigen minimale Aktivität (ca. 5 Laufimpulse/5 Minuten).

A further data set concerns Dopamin-Autorezeptoren. The data set can be described thus: Inhibition of dopamine turnover (AMPT-induced fall of whole-brain dopamine) in mice. It counts as in vivo, Mäusen. To be noted: 5 mg/kg s.c., AMPT 250 mg/kg i.p. at 15 min, whole brain dopamine at 4 h 15 min. How it is done: 2. Bestimmung der Dopaminturnoverhemmung:
Die Dopaminturnoverhemmung wurde an Mäusen gemessen. Bei Tieren, die mit α-Methyl-p-tyrosin (AMPT) (250 mg/kg i.p.) zum Zeitpunkt 15 Minuten des Experimentes behandelt werden, fällt die Dopaminkonzentration im Gesamthirn mit fortschreitender Versuchsdauer ab. Durch Substanzen, die an Dopamin-Autorezeptoren wirken, kann der Dopaminabfall (im Vergleich zu mit Kochsalzlösung behandelten Kontrolltieren) verhindert werden. Testsubstanzen werden zum Zeitpunkt 0 des Experiments subkutan appliziert (5 mg/kg s.c.). Zum Zeitpunkt 4 Stunden und 15 Minuten des Experiments werden die Tiere getötet und die Gehirne der Dopaminbestimmung mittels Hochdruckflüssigkeitschromatographie mit elektrochemischer Detektion zugeführt. Bestimmt wird die durch die Testsubstanz bewirkte prozentuale Hemmung des durch AMPT induzierten Dopaminabfalls: […]

The target of the next data set is T1, Dopamin (D₂)-Rezeptor (Rattus norvegicus, UniProt P61169).
T1 construct: Die Striata werden herauspräpariert und in 25 ml eiskaltem Puffer; from tissue; host or cells: rat striatum membrane homogenate
Briefly: Dopamine (D2) receptor binding affinity, 3H-spiroperidol displacement in rat striatal homogenate. Also on record: species or system Ratten. How it is done:
1.) Bestimmung der Dopamin (D₂)-Rezeptorbindungsaffinitäten nach der modifizierten Methode von D.J. de Vries und P.M. Beart (Europ. J. Pharmacology 109, 417-419 (1985)):
Ratten werden durch Schlag betäubt, dekapitiert und das Ge hirn entnommen. Die Striata werden herauspräpariert und in 25 ml eiskaltem Puffer (50 mM TRIS-HCl, 1 mM EDTA, 5 mM MgCl₂, 1mM Ascorbinsäure, pH=7,20) homogenisiert. Das Homogenat wird 15 Minuten bei 0°C und 50000 × g zentrifugiert. Der Überstand wird verworfen. Das Pellet wird durch Resuspension und erneute Zentrifugation zweimal gewaschen und anschließend bei 37°C eine halbe Stunde vorinkubiert. Das Inkubat wird wie zuvor beschrieben zentrifugiert und der Überstand verworfen. Das Pellet wird in 60 ml Puffer resuspen diert, homogenisiert und dann mit Puffer 1:500 bezogen auf das Striatagewicht verdünnt.
Für den Inkubationsansatz werden 10 µl ³H-Spiroperidol-Lö-sung ([…]; Endkonzentration: 2,5 × 10⁻¹⁰ M), 970 µl Puffer sowie 20 µl Testsubstanzlösung (Endkonzentration: 10⁻¹¹-10⁻⁴ M) vorgelegt. Die unspezifische Bindung wird in Gegenwart von 1 µM Haloperidol bestimmt. Durch Zugabe von 1 ml Homogenatlösung zu dieser Vorlage wird der Assay gestartet. Die Inkubationszeit beträgt 60 Minuten bei Raumtemperatur. Nach Ablauf dieser Zeit wird das Inkubat über ein GF/B-Filter abgesaugt und mit 15 ml eiskaltem Puffer gewaschen. Das feuchte Filter wird mit Instagel® versetzt und über Nacht extrahiert. Anschließend wird die verbliebene Radioaktivität in einem Packard CA 2000 Szintillationscounter bei einer Zählausbeute von 50-55 % gezählt.
Mit Hilfe eines 2-Bindungsstellen-Iterationsprogrammes werden die IC₅₀-Werte ermittelt und daraus die Ki-Werte berechnet.

In a further data set the test system is MPTP-Affen. Briefly: Anti-Parkinson effect: abolition of Parkinson symptoms in the MPTP monkey. It counts as in vivo, Rhesusaffen. To be noted: for Dauer (Wirkungsdauer): at the minimal dose; for minimal effective dose: Macaca mulatta, im, read-out: Dosis (Mindestdosen, die zur Aufhebung der Parkinsonsymptomatik führen). From the text: b) Aufhebung der Parkinsonsymptome am MPTP-Affen nach der modifizierten Methode von Burns, R.S. und Chuang, C.: Proc. Natl. Acad. Sci. 80, 4546-4550 (1983):
Das durch das Neurotoxin 1-Methyl-4-phenyl-1,2,3,6-tetrahydro-pyridin (MPTP) beim Menschen und beim Affen ausgelöste, irreversible neurologische Krankheitsbild ähnelt in seiner klinischen, pathologischen, biochemischen und pharmakologischen Ausprägung weitgehend der idiopathischen Parkinson'schen Erkrankung (Markey et al., Nature 311, 464 (1984)). Ursache dieser überzeugenden Übereinstimmung ist die Tatsache, daß MPTP selektiv jene dopaminergen Nervenzellen in der Substantia nigra des Gehirns zerstört, welche auch bei der natürlich auftretenden Parkinson'schen Erkrankung durch degenerative Prozesse zerstört werden. Es wird diskutiert, daß auch die Ursache der idiopathischen Parkinson'schen Erkrankung im Organismus entstehendes MPTP oder eine ähnliche chemische Verbindung ist (Snyder, S.H., Nature 311, 514 (1984)). Möglicherweise bedingt durch den spezifischen Metabolismus des MPTP ist die klinische Ausprägung des MPTP-Parkinson'bildes bisher außer beim Menschen nur beim Affen nachweisbar.
Das an Rhesusaffen verwirklichte MPTP-Modell ist daher in hervorragendem Maße geeignet, die Wirkung von Anti-Parkinson-Medikamenten zu prüfen. Insgesamt 7 Rhesusaffen waren an dem Versuch beteiligt. Sie hatten über mehrere Tage verteilt, kumulative Dosen von 2,4-6,25 mg/kg MPTP erhalten, bis stabile und irreversible Parkinson-Symptome aufgetreten waren. Im Vordergrund der Symptomatik stand die Bradykinesie, die alle Tiere zeigten, teilweise sogar bis hin zur Akinesie. Kein Tier war in der Lage, spontan Wasser oder Futter aufzunehmen. Die Reaktivität war stark vermindert, meist verharrten die Tiere in einer typischen Beugehaltung. Tremor wurde gelegentlich gesehen. Die Extremitäten wiesen einen Rigor auf. Bei dem Versuch einer Willkür-Motorik traten häufig klonische Krämpfe auf.
Die nachfolgenden Verbindungen wurden jeweils an 2-3 der so vorbehandelten Tiere getestet. Bei intramuskulärer Gabe wurden nach etwa 5 bis 10 Minuten erste koordinierte Willkürbewegungen möglich, die in den folgenden 10 bis 30 Minuten von einer allmählichen, weitestgehenden Normalisierung der Motorik gefolgt waren. Die Tiere waren in der Lage, Nahrung aufzunehmen. Sie verhielten sich innerhalb ihrer Käfige regelgerecht, dies galt auch hinsichtlich Vigilanz und artspezifischen Verhaltens. Als Restsymptomatik wurde gelegentlich leichter Ruhetremor registriert.
Sobald die Wirkung der Verbindungen nachließ, verfielen die Tiere wieder in die oben beschriebene Parkinson-Symptomatik; eine erneute Applikation der Verbindungen führte wieder zur Besserung bzw. weitgehenden Aufhebung der klinischen Erscheinungen.
Nebenwirkungen traten in den bisher angewandten Dosierungen nicht in Erscheinung.
In der nachfolgenden Tabelle werden sowohl die Mindestdosen, die zur Aufhebung der Parkinsonsymptomatik führen, angegeben, als auch die Wirkungsdauer.

The next data set has as its system Mäusen. Briefly: Toxicity in mice, oral dosing. Type of data set: in vivo. Particulars: doses up to 500 mg/kg p.o. From the text: Ferner sind die erfindungsgemäß hergestellten Verbindungen weitgehend untoxisch. So konnten z.
[2] abbreviates: rat striata, 3H-Spiroperidol 2,5 × 10⁻¹⁰ M, 60 min at room temperature, Ki calculated from IC50, read-out: Ki.
Where [3] appears, read: MPTP-treated rhesus monkeys, i.m.

T1 sequence (P61169 whole entry): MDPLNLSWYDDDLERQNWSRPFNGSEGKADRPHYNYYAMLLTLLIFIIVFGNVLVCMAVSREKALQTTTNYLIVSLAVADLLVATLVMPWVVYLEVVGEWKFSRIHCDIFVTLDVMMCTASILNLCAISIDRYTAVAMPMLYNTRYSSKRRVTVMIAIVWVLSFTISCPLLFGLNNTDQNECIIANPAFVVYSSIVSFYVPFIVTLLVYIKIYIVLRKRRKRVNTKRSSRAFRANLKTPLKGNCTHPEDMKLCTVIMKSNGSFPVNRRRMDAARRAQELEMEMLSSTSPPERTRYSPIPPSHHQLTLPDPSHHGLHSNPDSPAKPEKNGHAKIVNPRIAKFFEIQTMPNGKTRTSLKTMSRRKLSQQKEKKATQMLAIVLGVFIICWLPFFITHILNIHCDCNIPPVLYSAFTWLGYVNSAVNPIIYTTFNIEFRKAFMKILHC

For orientation: Ki means the dissociation constant of the complex between target and ligand, obtained from inhibition or displacement. Regarding `CCCN1CCC=C(c2csc(N)n2)C1` [Substanz A, 2-Amino-4-(1-propyl-1,2,3,6-tetrahydro-pyridin-5-yl)-thiazol], in data set [1], the “Zahl der Laufimpulse/5 min” value came to 44 ± 4 Laufimpulse/5 min. The “Hemmung des Dopaminabfalls” value with Dopamin-Autorezeptoren worked out at 35%. Moreover, the Ki on Dopamin (D₂)-Rezeptor (setting [2]) was 36 nM.
For `C=CCN1CCC=C(c2csc(N)n2)C1` [Substanz B, 2-Amino-4-(1-allyl-1,2,3,6-tetrahydro-pyridin-5-yl)-thiazol], the “Zahl der Laufimpulse/5 min” value in data set [1] is recorded as 52 ± 9 Laufimpulse/5 min. In addition, the “Dauer (Wirkungsdauer)” value in the data set on MPTP-Affen (setting [3]) is 2-5 Std. The minimal effective dose in the data set with MPTP-Affen (MPTP-treated rhesus monkeys, 2-3 animals per compound, i.m.) is 0.05 mg/kg. On Dopamin (D₂)-Rezeptor (setting [2]), the Ki is 8 nM.
As for `C=CCN1CC=C(c2csc(N)n2)CC1` [Substanz C, 2-Amino-4-(1-allyl-1,2,3,6-tetrahydro-pyridin-4-yl)-thiazol], in the data set with Mäusen, the Todesfälle result is “keine Todesfälle”. The “Zahl der Laufimpulse/5 min” value in data set [1] came out at 32 ± 7 Laufimpulse/5 min. Moreover, the “Hemmung des Dopaminabfalls” value in the data set on Dopamin-Autorezeptoren is listed as 47%. In the data set with MPTP-Affen (setting [3]), the “Dauer (Wirkungsdauer)” value was 2-4 Std. Further, the minimal effective dose in the data set with MPTP-Affen stood at 0.35 mg/kg. This compound also gave a Ki at Dopamin (D₂)-Rezeptor of 22 nM.
For `CCCN1CC=C(c2csc(N)n2)CC1` [Substanz D, 2-Amino-4-(1-propyl-1,2,3,6-tetrahydro-pyridin-4-yl)-thiazol], the “Zahl der Laufimpulse/5 min” value in data set [1] was determined as 80 ± 10 Laufimpulse/5 min. In addition, the “Hemmung des Dopaminabfalls” value in the data set on Dopamin-Autorezeptoren was 80%. Also, in the data set on MPTP-Affen (setting [3]), the “Dauer (Wirkungsdauer)” value is 2-3 Std. In addition, the minimal effective dose with MPTP-Affen is 0.03 mg/kg. This compound also had a Ki on Dopamin (D₂)-Rezeptor of 6 nM.
In the case of `Nc1nc(C2=CCCNC2)cs1` [Substanz E, 2-Amino-4-(1,2,3,6-tetrahydro-pyridin-5-yl)thiazol-dihydrochlorid], the Ki at Dopamin (D₂)-Rezeptor (setting [2]) is 3 nM.
As for `CCCN1CCC(c2csc(N)n2)CC1` [Substanz F, 2-Amino-4-(1-propyl-piperidin-4-yl)thiazol], the “Zahl der Laufimpulse/5 min” value in data set [1] was 65 ± 17 Laufimpulse/5 min. For the same compound, the “Hemmung des Dopaminabfalls” value in the data set with Dopamin-Autorezeptoren amounted to 59%. Further, the “Dauer (Wirkungsdauer)” value with MPTP-Affen (setting [3]) was 2-3 Std. For the same compound, in the data set with MPTP-Affen, the minimal effective dose came out at 0.2 mg/kg. For the same compound, the Ki on Dopamin (D₂)-Rezeptor was found to be 38 nM.
